# Measured values reported in article PMC6896172, “Successful Targeting of the Warburg Effect in Prostate Cancer by Glucose-Conjugated 1,4-Naphthoquinones” (Cancers, 2019).
# pIC50: −log10 of the molar value.
# Assays:
# PNT2 cells = experiment: MTT cytotoxicity assay in PNT2 cells; format: cell-based, human; settings: 48 h of treatment
# Text: (§1) For general experiments human prostate cancer cell lines PC-3 and DU145 (docetaxel-resistant, androgen-independent, AR-FL(−), AR-V7(−)), 22Rv1 and VCaP (docetaxel-sensitive, androgen-independent, AR-FL(+), AR-V7(+), and LNCaP (docetaxel sensitive, androgen-dependent, AR-FL(+), AR-V7(−) were used. PC-3, 22Rv1, LNCaP cells as well as the human prostate non-cancer cells PNT2 and RWPE-1 were purchased from ATCC (Manassas, VA, USA). VCaP were purchased from ECACC (Salisbury, UK). The human fibroblast cell line MRC-9, the human embryonic kidney cell line HEK 293T, as well as the human umbilical vascular endothelial cell line HUVEC were kindly donated by Prof. Dr. Dr. med. Sonja Loges (University Medical Center Hamburg-Eppendorf, Hamburg, Germany). Cells were cultured according to the manufacturers’ instructions and were recently authenticated by a commercial service (Multiplexion, Heidelberg, Germany). Culture conditions are described in the Supplementary Information.
# (§2) MTT (3-(4,5-dimethylthiazol-2-yl)-2,5-diphenyltetrazolium bromide) cytotoxicity assay was used for the evaluation of cytotoxicity of the compounds or their combinations. Experiments were performed as previously described. In brief, 6000 cells/well were seeded in 96-well plate, incubated overnight, and treated with the drugs in 100 µL/well of 10% FBS/RPMI media containing 2 g/L of D-(+)-glucose for 48 h, unless otherwise stated. For 2 h treatment the cells were treated with the drugs for 2 h in the culture media, then the media was exchanged to fresh drug-free media (100 µL/well) containing MTT reagent and the further steps were performed as previously described.
# (§3) Table S4. Cytotoxic activity of the synthesized compounds. Cytotoxicity was determined in human prostate cancer PC-3 cells versus human prostate non-cancer
# (§4) PNT2 cells after 48 h of treatment, as well as its ratio. IC50 was evaluated using MTT assay. SI–selectivity index. #–the IC50s in both cell lines were >100 µM.
# (§5) Anisomycin was used as a reference substance.
# (§6) No Formula IC50(PC-3) IC50(PNT2) SI […]
# PC-3 cells = experiment: MTT cytotoxicity assay in PC-3 cells; format: cell-based, human; settings: for pIC50: Homo sapiens, PC-3, 48 h, 48 h of treatment; for SI [IC50(PNT2) / IC50(PC-3)]: ratio of IC50 in PNT2 cells to IC50 in PC-3 cells, 48 h
# Text: as §1, §2, §3, §4, §5, §6
# HUVEC cells = experiment: MTT cytotoxicity assay in HUVEC cells; format: cell-based; settings: Homo sapiens, 48 h of treatment, non-cancer
# Procedure: (§7) Dr. Dr. med. Sonja Loges (University Medical Center Hamburg-Eppendorf, Hamburg, Germany). Cells were cultured according to the manufacturers’ instructions and were recently authenticated by a commercial service (Multiplexion, Heidelberg, Germany). Culture conditions are described in the Supplementary Information.
# as §2
# HEK293 cells = experiment: MTT cytotoxicity assay in HEK293 cells; format: cell-based; settings: Homo sapiens, 48 h of treatment, non-cancer
# Procedure: as §7, §2
# LNCaP cells = experiment: MTT cytotoxicity assay in LNCaP cells; format: cell-based; settings: Homo sapiens, 48 h of treatment, cancer
# Procedure: as §7, §2
# DU145 cells = experiment: MTT cytotoxicity assay in DU145 cells; format: cell-based; settings: Homo sapiens, DU-145, 48 h of treatment, cancer
# Procedure: as §7, §2
# 22Rv1 cells [1] = experiment: Colony formation assay; format: cell-based, human; settings: 22Rv1 cells treated with non-cytotoxic concentrations for 48 h
# Procedure: Colony formation assays were performed as described before. In brief, cells were treated with the drugs for 48 h and then 100 alive cells were plated into each well of 6-well plates and incubated for 10 days. Surviving colonies were fixed, stained with Giemsa solution and counted.
# RWPE-1 cells = experiment: MTT cytotoxicity assay in RWPE-1 cells; format: cell-based; settings: Homo sapiens, 48 h of treatment, non-cancer
# Procedure: as §7, §2
# 22Rv1 cells [2] = experiment: Trypan blue exclusion viability assay; format: cell-based; settings: Homo sapiens, 48 h of treatment
# Procedure: The in vitro effect of the drugs on cell viability and proliferation was evaluated using trypan blue exclusion assay as described before with minor modifications. In brief, cells (0.2 × 10^6 cells/well) were seeded in 12-well plates, incubated overnight, the media was replaced with fresh media (1 mL/well) and treated with the drugs for 48 h. Cells were harvested by trypsination and the viability was measured using trypan blue staining and Beckman Coulter Vi-CELL (Beckman Coulter, Krefeld, Germany).
# VCaP cells = experiment: MTT cytotoxicity assay in VCaP cells; format: cell-based; settings: Homo sapiens, 48 h of treatment, cancer
# Procedure: as §7, §2
# MRC-9 cells = experiment: MTT cytotoxicity assay in MRC-9 cells; format: cell-based; settings: Homo sapiens, MRC9, 48 h of treatment, non-cancer
# Procedure: as §7, §2
# 22Rv1 cells [3] = experiment: Western blotting of treated cells; format: cell-based, human; settings: for AR-FL and AR-V7 expression: 48 h treatment; for LC3B-II and SQSTM1 levels (autophagy markers): pre-cytotoxic and cytotoxic concentrations, 48 h
# Procedure: Preparation of protein extracts for western blotting was performed as described previously. In brief, for western blotting, 1 × 10^6 cells/well were seeded in Petri dishes (ø 6 cm TC Dish (Sarstedt, Numbrecht, Germany) in 5 mL/dish), incubated overnight and treated with drugs in 5 mL/dish for an indicated time. Cells were harvested using a cell scraper, pelleted, and resuspended in the lysis buffer containing protease and phosphatase inhibitors. Further sample preparation and western blotting were performed as previously described with slight modifications. Relative optical density of the detected bands was quantified with Quantity One 4.6 software (Bio-Rad, Hercules, CA, USA). The primary and secondary antibodies used are listed in the Supplementary Information.
# 22Rv1 cells [4] = experiment: MTT cytotoxicity assay in 22Rv1 cells; format: cell-based, human; settings: Homo sapiens
# Procedure: as §7, §2
# [5] = 22Rv1, 48 h of treatment, cancer, read-out: IC50 (22Rv1)
# [6] = 22Rv1 cells, 2 h treatment, read-out: IC50 after 2 h of treatment
SMILES,"pIC50 (PNT2 cells; Homo sapiens, PNT2, 48 h)",pIC50 (PC-3 cells),SI [IC50(PNT2) / IC50(PC-3)] (PC-3 cells),other results
COC1=CC(=O)c2cccc(O)c2C1=O [Compound 9],5.39,5.55,1.42,–
CC1(C)OC2OC(C(O)COC3=CC(=O)c4c(O)ccc(O)c4C3=O)C(O)C2O1 (stereo not shown) [Compound 15],5.25,5.26,1.03,–
CC1(C)OC2OC(C(O)COC3=CC(=O)c4ccccc4C3=O)C(O)C2O1 (stereo not shown) [Compound 3],4.51,4.62,1.28,–
O=C1C=C(OC[C@H]2OC(O)[C@H](O)[C@@H](O)[C@@H]2O)C(=O)c2c(O)cccc21 (stereo partly shown) [Compound 12],3.99,–,–,"pIC50 (HUVEC cells): 4.34; pIC50 (HEK293 cells): 4.16; pIC50 (LNCaP cells): 4.62; pIC50 (DU145 cells): 4.43; cancer cell colony formation (22Rv1 cells [1]): suppress cancer cell colony formation; pIC50 (RWPE-1 cells): 4.32; pIC50 (22Rv1 cells [2]): 4.84; pIC50 (VCaP cells): 4.24; pIC50 (MRC-9 cells): 3.82; AR-FL and AR-V7 expression (22Rv1 cells [3]): downregulated both, AR full length (AR-FL) and AR-V7; LC3B-II and SQSTM1 levels (autophagy markers) (22Rv1 cells [3]): accumulation of both, LC3B-II and SQSTM1; pIC50 (22Rv1 cells [4]; [5]): 4.63; pIC50 (22Rv1 cells [4]; [6]): 4.02"
CCc1c(O)c2c(c(O)c1OC)C(=O)C(OC[C@H]1OC(O)[C@H](O)[C@@H](O)[C@@H]1O)=CC2=O (stereo partly shown) [Compound 20],4.55,4.00,0.28,–
COC1=CC(=O)c2c(O)ccc(O)c2C1=O [Compound 13],5.01,5.27,1.83,–
CCc1c(O)c2c(c(O)c1Cl)C(=O)C(OC[C@H]1OC(O)[C@H](O)[C@@H](O)[C@@H]1O)=CC2=O (stereo partly shown) [Compound 24],< 4.00,< 4.00,–,–
COC1=CC(=O)c2c(O)c(Cl)c(Cl)c(O)c2C1=O [Compound 25],5.91,5.64,0.53,–
O=C1C=C(OCC2OC(O)C(O)C(O)C2O)C(=O)c2c(O)ccc(O)c21 (stereo not shown) [Compound 16],< 4.00,< 4.00,–,–
O=C1C=C(OCC2OC(O)C(O)C(O)C2O)C(=O)c2ccccc21 (stereo not shown) [Compound 4],< 4.00,< 4.00,–,–
CC1(C)OC2OC3C(COC4=CC(=O)c5ccccc5C4=O)OC(C)(C)OC3C2O1 (stereo not shown) [Compound 2],4.79,4.88,1.24,–
COC1=CC(=O)c2ccccc2C1=O [Compound 1],4.84,5.03,1.55,–
CC1(C)OC2OC3C(COC4=CC(=O)c5cccc(O)c5C4=O)OC(C)(C)OC3C2O1 (stereo not shown) [Compound 10],5.20,5.38,1.53,–
CC1(C)OC2OC(C(O)COC3=CC(=O)c4c(O)c(Cl)c(Cl)c(O)c4C3=O)C(O)C2O1 (stereo not shown) [Compound 27],5.35,5.46,1.29,–
CC1(C)OC2OC3C(COC4=CC(=O)c5c(O)ccc(O)c5C4=O)OC(C)(C)OC3C2O1 (stereo not shown) [Compound 14],4.73,4.75,1.05,–
COC1=CC(=O)c2c(O)cccc2C1=O [Compound 5],5.23,5.35,1.31,–
CCc1c(O)c2c(c(O)c1Cl)C(=O)C(OC)=CC2=O [Compound 21],4.56,4.50,0.87,–
CCc1c(O)c2c(c(O)c1OC)C(=O)C(OCC(O)C1OC3OC(C)(C)OC3C1O)=CC2=O (stereo not shown) [Compound 19],4.38,4.55,1.49,–
CC1(C)OC2OC3C(COC4=CC(=O)c5c(O)c(Cl)c(Cl)c(O)c5C4=O)OC(C)(C)OC3C2O1 (stereo not shown) [Compound 26],5.68,5.56,0.75,–
CCc1c(O)c2c(c(O)c1OC)C(=O)C(OC)=CC2=O [Compound 17],4.90,4.66,0.57,–
CCc1c(O)c2c(c(O)c1Cl)C(=O)C(OCC1OC(C)(C)OC3C1OC1OC(C)(C)OC13)=CC2=O (stereo not shown) [Compound 22],5.53,5.37,0.7,–
O=C1C(OC[C@H]2OC(O)[C@H](O)[C@@H](O)[C@@H]2O)=CC(=O)c2c(O)cccc21 (stereo partly shown) [Compound 8],4.10,–,–,"pIC50 (HUVEC cells): 4.14; pIC50 (PNT2 cells): 4.13; pIC50 (HEK293 cells): 4.40; pIC50 (LNCaP cells): 4.70; pIC50 (DU145 cells): 4.97; cancer cell colony formation (22Rv1 cells [1]): suppress cancer cell colony formation; pIC50 (RWPE-1 cells): 4.30; pIC50 (22Rv1 cells [2]): 4.71; pIC50 (VCaP cells): 4.25; pIC50 (MRC-9 cells): 4.50; AR-FL and AR-V7 expression (22Rv1 cells [3]): downregulated both, AR full length (AR-FL) and AR-V7; LC3B-II and SQSTM1 levels (autophagy markers) (22Rv1 cells [3]): accumulation of both, LC3B-II and SQSTM1; pIC50 (22Rv1 cells [4]; [5]): 4.52; pIC50 (22Rv1 cells [4]; [6]): 4.03"
CCc1c(O)c2c(c(O)c1OC)C(=O)C(OCC1OC(C)(C)OC3C1OC1OC(C)(C)OC13)=CC2=O (stereo not shown) [Compound 18],5.02,4.87,0.7,–
CC1(C)OC2OC3C(COC4=CC(=O)c5c(O)cccc5C4=O)OC(C)(C)OC3C2O1 (stereo not shown) [Compound 6],5.39,5.35,0.91,–
O=C1C=C(OC[C@H]2OC(O)[C@H](O)[C@@H](O)[C@@H]2O)C(=O)c2c(O)c(Cl)c(Cl)c(O)c21 (stereo partly shown) [Compound 28],< 4.00,< 4.00,–,–
CCc1c(O)c2c(c(O)c1Cl)C(=O)C(OCC(O)C1OC3OC(C)(C)OC3C1O)=CC2=O (stereo not shown) [Compound 23],5.28,5.13,0.71,–
